Measurements published in US9023878B2 (Neurophyxia B.V., priority 2010, dated 2015).

Test: Visual inspection after 12 hours storage at 5° C.
Assay type: physicochemical

Measured: Appearance after 12 hours at 5° C.

N=C1N[C@H]2[C@H](CS[C@H]2CCCCC(=O)O)N1 [Formulation 2-IB, 2-iminobiotin]
Precipitated: saturated in 50 mM Citrate pH 3.0 | saturated in 50 mM Citrate pH 3.5 | saturated in 50 mM Citrate pH 4.0 | saturated in 50 mM Citrate pH 4.5 | saturated in 50 mM Citrate pH 5.0
